The values that follow come from patent publication US20240270821A1, “GIP/GLP1/GCG TRI-RECEPTOR AGONISTS AND USES THEREOF” (priority 2023, published 2024).

The term EC50 denotes the concentration giving half of the maximal effect.

Holding throughout (type): cell-based
Test [1] addresses hGcgR (Homo sapiens, UniProt P47871). Put plainly: Functional cAMP activation in the presence of 0.1% casein (no HSA). Conditions: read-out: Relative cAMP EC50, hGcgR.
For test [2], the target named is T1, hGLP-1R (Homo sapiens, UniProt P43220). The test is described as above. Conditions: read-out: Relative cAMP EC50, hGLP-1R.
T1 sequence (P43220 24-463): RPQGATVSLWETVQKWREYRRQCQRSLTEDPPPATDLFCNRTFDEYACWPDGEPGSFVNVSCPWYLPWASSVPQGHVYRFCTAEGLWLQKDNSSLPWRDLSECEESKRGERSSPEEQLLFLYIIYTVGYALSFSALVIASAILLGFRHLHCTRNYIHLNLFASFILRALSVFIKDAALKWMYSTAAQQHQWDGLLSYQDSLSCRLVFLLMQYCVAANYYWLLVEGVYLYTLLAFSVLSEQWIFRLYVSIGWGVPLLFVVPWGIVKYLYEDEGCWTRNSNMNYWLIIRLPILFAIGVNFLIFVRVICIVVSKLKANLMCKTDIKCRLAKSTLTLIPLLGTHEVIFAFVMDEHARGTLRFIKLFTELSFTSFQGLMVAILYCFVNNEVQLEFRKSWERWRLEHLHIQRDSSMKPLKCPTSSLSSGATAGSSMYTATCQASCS
Test [3] concerns the target human GcgR (Homo sapiens, UniProt P47871). Put plainly: Functional cAMP activity in the presence of 1% HSA. Conditions: read-out: cAMP Rel EC50, hGcgR.
Test [4] has as its target T2, hGIPR (Homo sapiens, UniProt P48546).
T2 sequence (P48546 22-466): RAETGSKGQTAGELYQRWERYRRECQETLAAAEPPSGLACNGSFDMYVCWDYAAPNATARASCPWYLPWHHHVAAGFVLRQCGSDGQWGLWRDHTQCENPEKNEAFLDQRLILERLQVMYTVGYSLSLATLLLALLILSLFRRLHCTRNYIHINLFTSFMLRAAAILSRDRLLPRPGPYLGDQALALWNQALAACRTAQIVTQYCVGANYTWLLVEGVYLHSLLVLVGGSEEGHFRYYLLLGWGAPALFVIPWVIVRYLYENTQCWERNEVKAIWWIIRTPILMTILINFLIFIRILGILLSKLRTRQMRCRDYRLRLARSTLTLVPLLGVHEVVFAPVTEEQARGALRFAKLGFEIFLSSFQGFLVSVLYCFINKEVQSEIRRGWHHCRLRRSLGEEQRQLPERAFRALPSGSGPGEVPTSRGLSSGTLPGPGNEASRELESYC
Put plainly: Functional cAMP activity in the presence of 1% HSA. Conditions: read-out: cAMP Rel EC50, hGIPR.

In test [5] the target is T1, hGLP-1R. The test can be described thus: Functional cAMP activity in the presence of 1% HSA. To be noted: read-out: cAMP Rel EC50, hGLP-1R.
Test [6] concerns the target T2, hGIPR. The test can be described thus: Functional cAMP activation in the presence of 0.1% casein (no HSA). To be noted: read-out: Relative cAMP EC50, hGIPR.
Where [7] appears, read: in the presence of 0.1% casein (no HSA), geometric mean.

Read-outs that look alike come from different tables or passages of the source. Starred links: 1 amine or outer side, 2 acyl side, 3 side chain; linkers in the order of their positions; H or OH if unused. Non-standard residues stand in square brackets, D forms with d. Residues, ends and D or L forms follow the SMILES beside them. Groups on a side chain read outwards from the residue. No end group written: not given here. *: point of attachment. C20 diacid = O=C(O)CCCCCCCCCCCCCCCCCCC(=O)*; C18 diacid = O=C(O)CCCCCCCCCCCCCCCCC(=O)*; αMePhe(2-F) = C[C@](N)(Cc1ccccc1F)C(=O)O; γGlu = O=C(O)[C@H](CCC(=O)[*:2])N[*:1]; αMe4Pal = C[C@](N)(Cc1ccncc1)C(=O)O; αMeY = C[C@](N)(Cc1ccc(O)cc1)C(=O)O; αMeF = C[C@](N)(Cc1ccccc1)C(=O)O; 4Pal = N[C@@H](Cc1ccncc1)C(=O)O; αMeL = CC(C)C[C@](C)(N)C(=O)O; αMeS = C[C@](N)(CO)C(=O)O; Orn = NCCC[C@H](N)C(=O)O; AEEA = NCCOCCOCC(=O)O; Aib = CC(C)(N)C(=O)O
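For Relative cAMP EC50, hGIPR in this document: intracellular cAMP rise after 30 min at 37 °C read by HTRF against a standard curve, scaled between buffer alone (0%) and top control ligand concentration (100%), four-parameter fit.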
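For Relative cAMP EC50, hGLP-1R in this document: intracellular cAMP rise after 30 min at 37 °C read by HTRF, normalized between buffer only (0%) and maximal control ligand (100%), four-parameter variable-slope fit.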
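For Relative cAMP EC50, hGcgR in this document: intracellular cAMP rise after 30 min at 37 °C, read by HTRF against a cAMP standard curve, scaled from buffer only (0%) to maximal control ligand response (100%).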

hGcgR, sequence (P47871 26-477): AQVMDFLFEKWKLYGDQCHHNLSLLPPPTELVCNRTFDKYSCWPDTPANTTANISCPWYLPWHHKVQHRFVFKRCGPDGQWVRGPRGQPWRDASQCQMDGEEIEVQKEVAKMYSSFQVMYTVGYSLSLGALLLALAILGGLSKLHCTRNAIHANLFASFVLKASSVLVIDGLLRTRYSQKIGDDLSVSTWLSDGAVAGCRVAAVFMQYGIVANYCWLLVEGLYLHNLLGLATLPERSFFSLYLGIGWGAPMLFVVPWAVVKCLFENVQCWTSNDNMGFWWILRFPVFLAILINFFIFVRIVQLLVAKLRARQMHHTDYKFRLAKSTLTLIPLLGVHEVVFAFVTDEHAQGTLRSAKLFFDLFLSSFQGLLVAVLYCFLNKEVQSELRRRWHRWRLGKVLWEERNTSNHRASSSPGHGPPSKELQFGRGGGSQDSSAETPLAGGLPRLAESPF
human GcgR, sequence (P47871 26-477): as above

As for “H-Y[Aib]QGTFTSD[4Pal]S[Orn][αMeL]LD[Orn]K([γGlu-γGlu-C18 diacid])AQ[αMe4Pal]AFIEYLIAGGPSSGEPPPSGTE-NH2 [Example 984]”, the EC50 in test [1] (setting [7]) is 4.5 nM; in test [2] (setting [7]) it was 2.07 nM; in test [3] it was 409 nM; in test [4], 23.5 nM; in test [5] it was 160 nM; in test [6] (setting [7]), 0.232 nM.

Consider “H-Y[Aib]QGT[αMePhe(2-F)]TSD[4Pal][αMeS]I[αMeL]LD[Orn]K([AEEA-γGlu-C18 diacid])AA[Aib]EFI[dE][αMeY]LIEGGPSSGAPPPSGTGQ-OH [Example 724]”, for which the EC50 in test [1] came to 1.74 nM; in test [2], 0.256 nM; in test [3], 209 nM; in test [4], 1.06 nM; in test [5], 26.4 nM; in test [6], 0.0102 nM.

Take `CC[C@H](C)[C@H](NC(=O)[C@H](CC(C)C)NC(=O)[C@](C)(Cc1ccc(O)cc1)NC(=O)[C@@H](CCC(=O)O)NC(=O)[C@@H](NC(=O)[C@H](Cc1ccccc1)NC(=O)[C@H](CO)NC(=O)C(C)(C)NC(=O)[C@H](CCC(N)=O)NC(=O)[C@H](C)NC(=O)[C@H](CCCCNC(=O)CC[C@H](NC(=O)CC[C@H](NC(=O)CCCCCCCCCCCCCCCCC(=O)O)C(=O)O)C(=O)O)NC(=O)[C@H](CCCN)NC(=O)[C@H](CC(=O)O)NC(=O)[C@H](CC(C)C)NC(=O)[C@](C)(CC(C)C)NC(=O)[C@@H](NC(=O)[C@](C)(CO)NC(=O)[C@H](Cc1ccncc1)NC(=O)[C@H](CC(=O)O)NC(=O)[C@H](CO)NC(=O)[C@@H](NC(=O)[C@](C)(Cc1ccccc1F)NC(=O)[C@@H](NC(=O)CNC(=O)[C@H](CCC(N)=O)NC(=O)C(C)(C)NC(=O)[C@@H](N)Cc1ccc(O)cc1)[C@@H](C)O)[C@@H](C)O)[C@@H](C)CC)[C@@H](C)CC)C(=O)N[C@@H](CCC(=O)O)C(=O)NCC(=O)NCC(=O)N1CCC[C@H]1C(=O)N[C@@H](CO)C(=O)N[C@@H](CO)C(=O)NCC(=O)N[C@@H](CCC(=O)O)C(=O)N1CCC[C@H]1C(=O)N1CCC[C@H]1C(=O)N1CCC[C@H]1C(=O)N[C@@H](CCC(=O)O)C(N)=O` [Example 436] (H-Y[Aib]QGT[αMePhe(2-F)]TSD[4Pal][αMeS]I[αMeL]LD[Orn]K([γGlu-γGlu-C18 diacid])AQ[Aib]SFI[dE][αMeY]LIEGGPSSGEPPPE-NH2; N-terminus assumed): the EC50 in test [1] came to 2.27 nM; in test [2] it was 0.173 nM; in test [3], 182 nM; in test [4], 1.18 nM; in test [5], 11.7 nM; in test [6] it was 0.0294 nM.

On to “H-Y[Aib]QGT[αMePhe(2-F)]TSD[4Pal][αMeS]I[αMeL]LD[Orn]K([γGlu-γGlu-C18 diacid])AQ[Aib]NFI[dE][αMeY]LQEGGPSSGEPPPEGTGE-NH2 [Example 527]”, for which the EC50 in test [1] was 6.99 nM; in test [2], 0.446 nM; in test [3] it was 580 nM; in test [4], 2.6 nM; in test [5], 26.8 nM; in test [6], 0.0386 nM.

As to “H-Y[Aib]QGTFTSDFSK[αMeL]LDKK([AEEA-γGlu-C20 diacid])AQ[Aib]AFIEYLLEGGPSSGAPPP[γGlu]GE-NH2 [Example 53]”, the concentration giving a half-maximal response (EC50) was 4.19 nM in test [1] (setting [7]); 3.31 nM in test [2] (setting [7]); 1780 nM in test [3]; 113 nM in test [4]; 1030 nM in test [5]; 0.518 nM in test [6] (setting [7]).

As to “H-Y[Aib]QGT[αMePhe(2-F)]TSD[4Pal][αMeS]I[αMeL]LD[Orn]K([AEEA-γGlu-γGlu-C18 diacid])AQ[Aib][Orn]FIEYLIEAGPSSGEPPPEEG-NH2 [Example 485]”, the EC50 stood at 4.29 nM in test [1]; 0.277 nM in test [2]; 298 nM in test [3]; 0.869 nM in test [4]; 11.8 nM in test [5]; 0.0194 nM in test [6].

For the molecule `CC[C@H](C)[C@H](NC(=O)[C@H](Cc1ccccc1)NC(=O)[C@H](C)NC(=O)C(C)(C)NC(=O)[C@H](CCC(N)=O)NC(=O)[C@H](C)NC(=O)[C@H](CCCCNC(=O)COCCOCCNC(=O)CC[C@H](NC(=O)CCCCCCCCCCCCCCCCC(=O)O)C(=O)O)NC(=O)[C@H](CCCCN)NC(=O)[C@H](CC(=O)O)NC(=O)[C@H](CC(C)C)NC(=O)[C@H](CC(C)C)NC(=O)[C@@H](NC(=O)[C@H](CO)NC(=O)[C@H](Cc1ccc(O)cc1)NC(=O)[C@H](CC(=O)O)NC(=O)[C@H](CO)NC(=O)[C@@H](NC(=O)[C@](C)(Cc1ccccc1F)NC(=O)[C@@H](NC(=O)CNC(=O)[C@H](CCC(N)=O)NC(=O)C(C)(C)NC(=O)[C@@H](N)Cc1ccc(O)cc1)[C@@H](C)O)[C@@H](C)O)[C@@H](C)CC)C(=O)N[C@@H](CCC(=O)O)C(=O)N[C@@H](Cc1ccc(O)cc1)C(=O)N[C@@H](CC(C)C)C(=O)N[C@@H](CCC(=O)O)C(=O)N[C@@H](CCC(=O)O)C(=O)NCC(=O)NCC(=O)N1CCC[C@H]1C(=O)N[C@@H](CO)C(=O)N[C@@H](CO)C(=O)NCC(=O)N[C@@H](C)C(=O)N1CCC[C@H]1C(=O)N1CCC[C@H]1C(=O)N1CCC[C@H]1C(=O)N[C@@H](CO)C(=O)N[C@@H](CCC(=O)O)C(=O)NCC(N)=O` [Example 398], the EC50 in test [1] came out at 2.16 nM; in test [2] it was 0.186 nM; in test [3], 375 nM; in test [4], 12.4 nM; in test [5], 42.2 nM; in test [6], 0.0318 nM.

In the case of “H-Y[Aib]QGT[αMePhe(2-F)]TSD[4Pal][αMeS]I[αMeL]LD[Orn]K([γGlu-γGlu-C18 diacid])AQ[αMe4Pal]EFI[dE][αMeY]LIEGGPSSGEPPPSGS-NH2 [Example 715]”, the 50% effective concentration (EC50) in test [1] came out at 1 nM; in test [2] it was 0.267 nM; in test [3], 126 nM; in test [4] it was 0.51 nM; in test [5], 19.7 nM; in test [6], 0.00644 nM.

“H-Y[Aib]QGT[αMePhe(2-F)]TSD[4Pal][αMeS]I[αMeL]LD[Orn]K([AEEA-γGlu-C18 diacid])AQ[αMe4Pal]EFI[dE][αMeY]LVEGGPSSGAPPPEGE-NH2 [Example 1158]”: the EC50 in test [1] (setting [7]) worked out at 2.19 nM; in test [2] (setting [7]), 0.419 nM; in test [3], 301 nM; in test [4] it was 1.42 nM; in test [5], 46.8 nM; in test [6] (setting [7]), 0.0126 nM.

For the molecule `CC[C@H](C)[C@H](NC(=O)[C@H](Cc1ccccc1)NC(=O)[C@H](C)NC(=O)C(C)(C)NC(=O)[C@H](CCC(N)=O)NC(=O)[C@H](C)NC(=O)[C@H](CCCCNC(=O)COCCOCCNC(=O)CC[C@H](NC(=O)CCCCCCCCCCCCCCCCC(=O)O)C(=O)O)NC(=O)[C@H](CCCCN)NC(=O)[C@H](CC(=O)O)NC(=O)[C@H](CC(C)C)NC(=O)[C@](C)(CC(C)C)NC(=O)[C@@H](NC(=O)[C@H](CO)NC(=O)[C@H](Cc1ccc(O)cc1)NC(=O)[C@H](CC(=O)O)NC(=O)[C@H](CO)NC(=O)[C@@H](NC(=O)[C@](C)(Cc1ccccc1)NC(=O)[C@@H](NC(=O)CNC(=O)[C@H](CCC(N)=O)NC(=O)C(C)(C)NC(=O)[C@@H](N)Cc1ccc(O)cc1)[C@@H](C)O)[C@@H](C)O)[C@@H](C)CC)C(=O)N[C@@H](CCC(=O)O)C(=O)N[C@@H](Cc1ccc(O)cc1)C(=O)N[C@@H](CC(C)C)C(=O)N[C@@H](CCC(=O)O)C(=O)N[C@@H](CCC(=O)O)C(=O)NCC(=O)NCC(=O)N1CCC[C@H]1C(=O)N[C@@H](CO)C(=O)N[C@@H](CO)C(=O)NCC(=O)N[C@@H](C)C(=O)N1CCC[C@H]1C(=O)N1CCC[C@H]1C(=O)N1CCC[C@H]1C(=O)N[C@@H](CCC(=O)O)C(N)=O` [Example 396] (H-Y[Aib]QGT[αMeF]TSDYSI[αMeL]LDKK([AEEA-γGlu-C18 diacid])AQ[Aib]AFIEYLEEGGPSSGAPPPE-NH2), the EC50 in test [1] is 4.99 nM; in test [2], 0.293 nM; in test [3] it was 468 nM; in test [4], 9.5 nM; in test [5], 38.2 nM; in test [6], 0.024 nM.

For “Y[Aib]QGT[αMePhe(2-F)]TSD[4Pal][αMeS]I[αMeL]LD[Orn]K([AEEA-γGlu-C18 diacid])AA[Aib]EFI[dE][αMeY]LIEGGPSSGAPPPSGE-NH2 [Example 701]”, the EC50 stood at 1.48 nM in test [1]; 0.22 nM in test [2]; 226 nM in test [3]; 0.979 nM in test [4]; 24.9 nM in test [5]; 0.01 nM in test [6].
